The values that follow come from ChEMBL document CHEMBL4808232, “Discovery of IDO1 inhibitors containing a decahydroquinoline, decahydro-1,6-naphthyridine, or octahydro-1H-pyrrolo[3,2-c]pyridine scaffold” (Bioorg Med Chem Lett, 2021).

For data set [1], the target named is T1, Indoleamine 2,3-dioxygenase 1 (Homo sapiens, UniProt P14902). Nature of the data set: Inhibition of IDO1 in human whole blood. In kind it is tissue-based.
The target of data set [2] is T1, Indoleamine 2,3-dioxygenase 1. Nature of the data set: Inhibition of IDO1 in human HeLa cells assessed as production of N-formylkynurenine using tryptophan as substrate in presence of inactivated fetal bovine serum. Type of data set: cell-based.
Data set [3] can be described thus: Unbound clearance in male Wistar Han rat at 0.05 mg/kg, iv. In kind it is ADME, organism-based. To be noted: in vivo.
Data set [4] in a line: MRT in male Wistar Han rat at 0.05 mg/kg, iv. Type of data set: ADME, organism-based. To be noted: in vivo.
Data set [5] deals with Tryptophan 2,3-dioxygenase (Homo sapiens) (UniProt P48775). Nature of the data set: Inhibition of TDO in human SW48 cells. In kind it is cell-based.
Setting [6] is: male, Wistar Han, read-out: MRT.

The source made the active and inactive calls. No cut-off for these calls is given here.

T1 sequence (P14902 whole entry): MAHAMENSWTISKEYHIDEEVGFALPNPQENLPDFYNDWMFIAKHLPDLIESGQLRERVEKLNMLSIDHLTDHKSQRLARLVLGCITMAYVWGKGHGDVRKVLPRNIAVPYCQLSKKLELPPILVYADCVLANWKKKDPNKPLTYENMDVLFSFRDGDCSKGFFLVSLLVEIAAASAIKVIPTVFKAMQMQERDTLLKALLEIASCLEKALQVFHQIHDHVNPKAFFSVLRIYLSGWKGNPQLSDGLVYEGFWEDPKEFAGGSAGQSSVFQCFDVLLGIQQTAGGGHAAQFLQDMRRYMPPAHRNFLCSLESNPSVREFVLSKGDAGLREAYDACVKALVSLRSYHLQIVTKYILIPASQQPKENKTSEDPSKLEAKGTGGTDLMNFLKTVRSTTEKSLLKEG
Sequence of Tryptophan 2,3-dioxygenase (Homo sapiens) (P48775 whole entry, looked up): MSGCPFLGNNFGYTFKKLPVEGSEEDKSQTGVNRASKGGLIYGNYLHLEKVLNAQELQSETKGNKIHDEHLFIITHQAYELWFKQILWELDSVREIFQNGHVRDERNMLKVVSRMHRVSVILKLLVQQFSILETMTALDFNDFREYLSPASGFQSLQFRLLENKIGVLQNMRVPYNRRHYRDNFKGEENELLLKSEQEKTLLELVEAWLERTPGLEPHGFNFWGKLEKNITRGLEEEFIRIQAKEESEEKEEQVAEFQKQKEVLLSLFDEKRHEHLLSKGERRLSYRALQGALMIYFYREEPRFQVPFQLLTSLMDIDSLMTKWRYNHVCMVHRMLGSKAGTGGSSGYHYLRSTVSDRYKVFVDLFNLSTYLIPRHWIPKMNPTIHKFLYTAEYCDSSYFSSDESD

For the compound `C[C@@H](C(=O)Nc1ccc(F)cc1)C1CCC2C(CCCN2C(=O)c2cccc(Cl)c2)C1` (stereo in doubt; 5), the IC50 (in general, the concentration that gives 50% inhibition) worked out at 312 nM in data set [1] and 2.1 nM in data set [2]. In the case of `C[C@@H](C(=O)Nc1ccc(F)cc1)C1CCC2C(CCCN2C(=O)c2cccc(Cl)c2)C1` (stereo in doubt; 6), the CL free in data set [3] was 269 L/h/kg. Besides, the IC50 in data set [2] worked out at 2.3 nM. Also, the mean residence time MRT (usually the average time that molecules of a dose stay in the body) in data set [4] (0.05 mg/kg) turned out to be 1.1 h. For the compound `O=C(c1cccc(Cl)c1)N1CCCC2CC(C3(C(=O)Nc4ccc(F)cc4)CCC3)CCC21` (stereo in doubt; 10), the inhibition entry in data set [5] is “inactive”.

`O=C(C1CC1)N1CCCC2CC(C3(C(=O)Nc4ccc(F)cc4)CCC3)CCC21` (stereo in doubt; 11): in data set [5], the inhibition result is “inactive”. As to `O=C(C1CC1)N1CCCC2CC(C3(C(=O)Nc4ccc(F)cc4)CCC3)CCC21` (stereo in doubt; 12), the inhibition entry in data set [5] was “inactive”. Same read-out and setting: then `O=C(C1CC1)N1CCCC2CC(C3(C(=O)Nc4ccc(F)cc4)CCC3)CCC21` (stereo in doubt; 13), with “inactive”.

Turning to `O=C(C1CC1)N1CCCC2CC(C3(C(=O)Nc4ccc(F)cc4)CCC3)CCC21` (stereo in doubt; 14), the inhibition entry in data set [5] is “inactive”.

On to `Cc1nccc(N2CCCC3CC(C4(C(=O)Nc5ccc(F)cc5)CCC4)CCC32)n1` (stereo in doubt; 15), for which the inhibition entry in data set [5] was “inactive”.

`Cc1nccc(N2CCCC3CC(C4(C(=O)Nc5ccc(F)cc5)CCC4)CCC32)n1` (stereo in doubt; 16) [listing 1 of 2 here]: the CL free in data set [3] worked out at 113 L/h/kg. For the same compound, in data set [2], the IC50 was 4.2 nM. The compound also gave an MRT in data set [4] (0.05 mg/kg) of 1.8 h. On to `Cc1nccc(N2CCCC3CC(C4(C(=O)Nc5ccc(F)cc5)CCC4)CCC32)n1` (stereo in doubt; 16) [listing 2 of 2 here], for which the inhibition result in data set [5] is “inactive”. Same read-out and setting: then `Cc1nccc(N2CCCC3CC(C4(C(=O)Nc5ccc(F)cc5)CCC4)CCC32)n1` (stereo in doubt; 17), with “inactive”. As for `Cc1nccc(N2CCCC3CC(C4(C(=O)Nc5ccc(F)cc5)CCC4)CCC32)n1` (stereo in doubt; 18), in data set [5], the inhibition result is “inactive”.

As for `O=C(Nc1ccc(F)cc1)C1(C2CCC3C(CCCN3c3ccnc(C(F)(F)F)n3)C2)CCC1` (stereo in doubt; 19) [listing 1 of 2 here], in data set [3], the CL free is 799.26 L/h/kg. For the same compound, the IC50 in data set [2] was 1.9 nM. For the same compound, the MRT in data set [4] (setting [6]) is 1.9 h. For `O=C(Nc1ccc(F)cc1)C1(C2CCC3C(CCCN3c3ccnc(C(F)(F)F)n3)C2)CCC1` (stereo in doubt; 19) [listing 2 of 2 here], in data set [5], the inhibition result was “inactive”.

In the case of `O=C(Nc1ccc(F)cc1)C1(C2CCC3C(CCCN3c3ccnc(C(F)(F)F)n3)C2)CCC1` (stereo in doubt; 20), the inhibition entry in data set [5] was “inactive”. Compound `O=C(Nc1ccc(F)cc1)C1(C2CCC3C(CCCN3c3ccnc(C(F)(F)F)n3)C2)CCC1` (stereo in doubt; 21) [listing 1 of 2 here] came in with a CL free in data set [3] of 431 L/h/kg. The IC50 in data set [2] stood at 2.6 nM. Further, the mean residence time MRT in data set [4] (0.05 mg/kg) amounted to 2.9 h. `O=C(Nc1ccc(F)cc1)C1(C2CCC3C(CCCN3c3ccnc(C(F)(F)F)n3)C2)CCC1` (stereo in doubt; 21) [listing 2 of 2 here]: the inhibition entry in data set [5] is “inactive”. For the compound `O=C(Nc1ccc(F)cc1)C1(C2CCC3C(CCCN3c3ccnc(C(F)(F)F)n3)C2)CCC1` (stereo in doubt; 22) [listing 1 of 2 here], the CL free in data set [3] is 357.1 L/h/kg. The IC50 in data set [2] was determined as 3.2 nM. In data set [4] (0.05 mg/kg), this compound returned an MRT of 3.5 h.

For the compound `O=C(Nc1ccc(F)cc1)C1(C2CCC3C(CCCN3c3ccnc(C(F)(F)F)n3)C2)CCC1` (stereo in doubt; 22) [listing 2 of 2 here], in data set [5], the inhibition entry was “inactive”.

With `CC(C(=O)Nc1ccc(Cl)cc1)N1CCC2C(CCN2C(=O)OC2CC2)C1` (stereo in doubt; 38), the CL free in data set [3] stood at 143.6 L/h/kg. Further, the IC50 in data set [2] is 16 nM. For the same compound, in data set [4] (setting [6]), the MRT amounted to 1.5 h. The compound `CC(C(=O)Nc1ccc(Cl)cc1)N1CCC2C(CCN2C(=O)OC2CC2)C1` (stereo in doubt; 39) returned a CL free in data set [3] of 39.8 L/h/kg. Further, in data set [2], the IC50 turned out to be 184 nM. In addition, the MRT in data set [4] (0.05 mg/kg) was found to be 2.8 h.
